# Assay results taken from patent US5721366A, “Platelet aggregation inhibitors” (G. D. Searle & Co, priority 1995, dated 1998).
# Counter-ions that a name gives are not always drawn.
# Tests used:
# [1] = tested on: Dog platelet aggregation (platelet-rich plasma); assay: In-Vitro Platelet Aggregation in PRP (Dog), collagen-induced; assay type: cell-based; conditions: Canis lupus familiaris, Platelet, collagen-induced aggregation (33 μg/ml final), 37° C.
# Protocol: In-Vitro Platelet Aggregation in PRP--(Dog)
# Healthy male or female dogs were fasted for 8 hours prior to drawing blood; then 60 ml whole blood was collected using a butterfly needle and 30 cc plastic syringe with 6 ml of 0.129M buffered sodium citrate (3.8%) (drawn from a minimum of 3 dogs and blood was pooled). The syringe was rotated carefully as blood was drawn to mix the citrate. Platelet-rich plasma (PRP) was prepared by centrifugation at 975×g for 3.17 minutes at room temperature, allowing the centrifuge to coast to a stop without braking. The PRP was removed from the blood with a plastic pipette and placed in a plastic capped 50 ml Corning conical sterile centrifuge tube which was held at room temperature. Platelet poor plasma (PPP) was prepared by centrifuging the remaining blood at 2000×g for 15 minutes at room temperature allowing the centrifuge to coast to a stop without braking. The platelet count in the PRP was routinely 2-4×10^8 platelets per ml. 400 μl of the PRP preparation and 50 μl of the compound to be tested or saline were preincubated for 2 minutes at 37° C. in a BioData aggregometer (BioData, Horsham, Pa.). 50 μl of collagen (diluted 1:3 with 5% dextrose and water solution, 33 μg/ml final concentration, equine tendon, Chronolog, Havertown, Pa.) was added to the cuvettes and the aggregation was monitored for 3 minutes. All compounds are tested in duplicate.
# Results are calculated as follows:
# Percent of control=[(maximal OD minus initial OD of compound) divided by (maximal OD minus initial OD of control saline)]×100. The % inhibition=100-(percent of control).
# (§1) (NT in the following table indicates not tested.)
# [2] = tested on: Human platelet aggregation (platelet-rich plasma); assay: Inhibition of Human Platelet Aggregation (PRP), collagen-induced; assay type: cell-based; conditions: Homo sapiens, Platelet, collagen-induced aggregation (4 μg/ml final), 37° C.
# Protocol: Inhibition of Human Platelet Aggregation (PRP)
# Platelet rich plasma was prepared from citrated whole blood (3.8% Na citrate, 1:10 in 30 ml blood) withdrawn from the antecubital vein (n=1). PRP was prepared by centrifugation (Sorvall RC3C, DuPont, Wilmington, Del.) of the whole blood at 1000×g for 3 min, allowing the centrifuge to stop without braking. Platelet poor plasma (PPP) was prepared by centrifugation of PRP at 2000×g for 10 min. […] Aggregation was measured in a 4 channel aggregometer (model PAP-4C, Bio/Data Corp., Hatboro, Pa.). Aliquots of PPP were used to standardize the aggregometer for measurement of maximum light transmission. Platelet aggregation was measured as an increase in light transmission.
# PRP (430 μl aliquot) was preincubated with 50 μl of various concentrations of compound (dissolved in 10% ETOH/water at a concentration of 10^-3 M. Compounds were diluted to desired concentration with 0.9% NaCl) for 2 min at 37° C., with stirring at 900 rpm, in the aggregometer. The stock collagen (Chronolog, Havertown, Pa., equine tendon) was diluted 1:10 with a 5% dextrose and water solution. The vehicle control response was obtained by adding 20 μl diluted collagen to the untreated aliquot of PRP+50 μl saline. Final collagen concentration was 4 μg/ml. Aggregation was recorded for 3 min following the addition of collagen. […] Percent inhibition was calculated by comparing treated and control samples. IC50 's were calculated graphically from dose-response curves. Average values and standard errors were calculated using the IC50 's of the individual experiments. Statistical analyses were done by an unequal variance, unpaired Student's t-test [Minitab Reference Manual, Minitab Inc., State College, Pa. (1988)]. Statistical significance was assumed when p<0.05 was found.
# as §1
SMILES,IC50 [1] [nM],IC50 [2] [nM]
"N=C(N)c1ccc(N2CCC(CC(=O)NCCC(=O)O)C2=O)cc1 (single isomer, unassigned; isomer b) [Example 36, 3-[[[1-[4-(aminoiminomethyl)phenyl]-2-oxo-3-pyrrolidinyl]acetyl]amino]propionic acid, trifluoroacetate, enantiomerically enriched isomer B.]",91,110
"N=C(N)c1ccc(N2CCC(CC(=O)NC(CC(=O)O)c3ccccc3)C2=O)cc1 (stereo not drawn) [Example 12, 3-[[[1-[4-(aminoiminomethyl)phenyl]-2-oxo-3-pyrrolidinyl]acetyl]amino]-3-phenylpropionic acid]",390,290
"N=C(N)c1ccc(N2CCC(CC(=O)NC[C@H](NC(=O)OCc3ccccc3)C(=O)O)C2=O)cc1 (stereo partly drawn) [Example 16, 3-[[[1-[4-(aminoiminomethyl)phenyl]-2-oxo-3-pyrrolidinyl]acetyl]amino]-N-[(phenylmethoxy)carbonyl]-L-alanine]",100,310
"CC(CC(=O)O)NC(=O)CC1CCCN(c2ccc(C(=N)N)cc2)C1=O (stereo not drawn) [Example 30, 3-[[[1-[4-(aminoiminomethyl)phenyl]-2-oxo-3-piperidinyl]acetyl]amino]-butanoic acid]",380,280
"N=C(N)c1ccc(N2CCCC(CC(=O)NC(CC(=O)O)c3ccccc3)C2=O)cc1 (stereo not drawn) [Example 32, 3-[[[1-[4-(aminoiminomethyl)phenyl]-2-oxo-3-piperidinyl]acetyl]amino]-3-phenylpropanoic acid]",250,160
"N=C(N)c1ccc(N2CCC(CC(=O)NCCC(=O)O)C2=O)cc1 (stereo not drawn) [Example 8, 3-[[[1-[4-(aminoiminomethyl)phenyl]-2-oxo-3-pyrrolidinyl]acetyl]amino]propionic acid]",180,180
